These results are taken from patent US8541407B2 (ArQule, Inc., priority 2010, dated 2013).

What is called IC50 is the concentration that inhibits the measured activity by half.

Sequence of AKT1 (P31749 whole entry): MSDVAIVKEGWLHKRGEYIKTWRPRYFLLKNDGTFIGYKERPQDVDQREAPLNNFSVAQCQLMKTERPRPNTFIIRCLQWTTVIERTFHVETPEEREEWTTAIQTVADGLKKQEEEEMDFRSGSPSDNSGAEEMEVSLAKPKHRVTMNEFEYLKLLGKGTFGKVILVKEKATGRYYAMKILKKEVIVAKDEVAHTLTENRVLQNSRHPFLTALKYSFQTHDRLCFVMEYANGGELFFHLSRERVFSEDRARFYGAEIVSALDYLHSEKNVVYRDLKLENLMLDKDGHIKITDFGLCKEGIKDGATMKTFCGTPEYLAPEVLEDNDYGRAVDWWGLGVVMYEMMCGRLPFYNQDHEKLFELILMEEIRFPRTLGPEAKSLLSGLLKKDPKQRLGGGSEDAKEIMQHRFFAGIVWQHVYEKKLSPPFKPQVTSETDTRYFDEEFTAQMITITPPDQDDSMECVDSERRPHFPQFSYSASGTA

In this experiment the target is AKT1 (Homo sapiens (Human), UniProt P31749). Put plainly: Inactive Akt Alpha Screen Assay. To be noted: non *labeled: Akt Alpha Screen assay; read-out: AKT1 biochemical assay, IC50. The procedure:
AKT1 activity was assayed using the GSK3-derived biotinylated peptide substrate, crosstide (biotin-[…]), and AlphaScreen™ (Amplified Luminescent Proximity Homogeneous Assay) technology. AKT1 activation was achieved by the addition of the activating kinases PDK1 and MAPKAPK2, lipid vesicles, and ATP. The extent of peptide phosphorylation was determined using a phospho-AKT substrate antibody and acceptor beads conjugated to Protein A and donor beads conjugated to streptavidin that bind to the biotin on the peptide. Excitation of the donor beads converted ambient oxygen to excited singlet oxygen which, when in close proximity to acceptor beads, reacted with acceptor beads resulting in signal amplification. […] The plates were incubated for 30 minutes at room temperature, and then stopped in the dark by the addition of 10 μL stop/detection mixture prepared in assay buffer containing EDTA, AlphaScreen™ Streptavidin Donor and Protein A Acceptor beads, and phospho-AKT substrate antibody for final concentrations of 10 mM EDTA, 500 ng/well of both AlphaScreen™ Streptavidin Donor beads and Protein A Acceptor beads, and phospho-AKT substrate antibody at a final dilution of 1:350. Assay plates were incubated for 90 minutes at room temperature in the dark, and the plates were read on a Perkin Elmer Envision Multilabel plate reader (excitation wavelength: […], emission wavelength: 570 nm). […] Envision Instrument Settings: • Instrument: Perkin Elmer Envision • Plate: 96 well • Program Name: • Excitation: Ex Top • Mirror: General Dual—Slot 2 • Excitation Filter: CFP430 Ex.
Take `O=C1CCCN1CCCNCc1ccc(-c2nnc3n2-c2cccnc2Nc2ccccc2-3)cc1` [Example 78, 1-(3-((4-(9H-benzo[f]pyrido[2,3-b][1,2,4]triazolo[4,3-d][1,4]diazepin-3-yl)benzyl)amino)propyl)pyrrolidin-2-one]: the IC50 was determined as 4400 nM.

For the compound `CN(CCc1ccccc1)Cc1ccc(-c2nnc3n2-c2cccnc2Nc2ccccc2-3)cc1` [Example 79, N-(4-(9H-benzo[f]pyrido[2,3-b][1,2,4]triazolo[4,3-d][1,4]diazepin-3-yl)benzyl)-N-methyl-2-phenylethanamine], the half-maximal inhibitory concentration (IC50) came to 780 nM.

As for `OC1(c2ccccc2)CCN(Cc2ccc(-c3nnc4n3-c3cccnc3Nc3ccccc3-4)cc2)CC1` [Example 80, 1-(4-(9H-benzo[f]pyrido[2,3-b][1,2,4]triazolo[4,3-d][1,4]diazepin-3-yl)benzyl)-4-phenylpiperidin-4-ol], the half-maximal inhibitory concentration (IC50) is 1900 nM.

For `CCN(CC)C(=O)C1CCCN(Cc2ccc(-c3nnc4n3-c3cccnc3Nc3ccccc3-4)cc2)C1` (stereo not drawn) [Example 81, 1-(4-(9H-benzo[f]pyrido[2,3-b][1,2,4]triazolo[4,3-d][1,4]diazepin-3-yl)benzyl)-N,N-diethylpiperidine-3-carboxamide], the IC50 is 4800 nM.

On to `c1ccc(CN2CCN(Cc3ccc(-c4nnc5n4-c4cccnc4Nc4ccccc4-5)cc3)CC2)cc1` [Example 82, 3-(4-((4-benzylpiperazin-1-yl)methyl)phenyl)-9H-benzo[f]pyrido[2,3-b][1,2,4]triazolo[4,3-d][1,4]diazepine], for which the half-maximal inhibitory concentration (IC50) stood at 5300 nM.

Turning to `OC1CCCN(Cc2ccc(-c3nnc4n3-c3cccnc3Nc3ccccc3-4)cc2)C1` (stereo not drawn) [Example 83, 1-(4-(9H-benzo[f]pyrido[2,3-b][1,2,4]triazolo[4,3-d][1,4]diazepin-3-yl)benzyl)piperidin-3-ol], the IC50 worked out at 5700 nM.

Turning to `c1ccc2c(c1)Nc1ncccc1-n1c(-c3ccc(CN4CCOCC4)cc3)nnc1-2` [Example 84, 4-(4-(9H-benzo[f]pyrido[2,3-b][1,2,4]triazolo[4,3-d][1,4]diazepin-3-yl)benzyl)morpholine], the IC50 was determined as 1600 nM.

As for `CC(C)CN(C)Cc1ccc(-c2nnc3n2-c2cccnc2Nc2ccccc2-3)cc1` [Example 85, N-(4-(9H-benzo[f]pyrido[2,3-b][1,2,4]triazolo[4,3-d][1,4]diazepin-3-yl)benzyl)-N,2-dimethylpropan-1-amine], the half-maximal inhibitory concentration (IC50) stood at 7100 nM.

As for `CC(=O)NC1CCN(Cc2ccc(-c3nnc4n3-c3cccnc3Nc3ccccc3-4)cc2)C1` (stereo not drawn) [Example 86, N-(1-(4-(9H-benzo[f]pyrido[2,3-b][1,2,4]triazolo[4,3-d][1,4]diazepin-3-yl)benzyl)pyrrolidin-3-yl)acetamide], the IC50 was 3400 nM.

Consider `CCCNCc1ccc(-c2nnc3n2-c2cccnc2Nc2ccccc2-3)cc1` [Example 87, N-(4-(9H-benzo[f]pyrido[2,3-b][1,2,4]triazolo[4,3-d][1,4]diazepin-3-yl)benzyl)propan-1-amine], for which the half-inhibitory concentration (IC50) amounted to 5800 nM.

Turning to `CN1CCC(N(C)Cc2ccc(-c3nnc4n3-c3cccnc3Nc3ccccc3-4)cc2)CC1` [Example 88, N-(4-(9H-benzo[f]pyrido[2,3-b][1,2,4]triazolo[4,3-d][1,4]diazepin-3-yl)benzyl)-N,1-dimethylpiperidin-4-amine], the concentration for half-maximal inhibition (IC50) worked out at 5500 nM.

Turning to `CCOC(=O)N1CCC(NCc2ccc(-c3nnc4n3-c3cccnc3Nc3ccccc3-4)cc2)CC1` [Example 89, ethyl 4-((4-(9H-benzo[f]pyrido[2,3-b][1,2,4]triazolo[4,3-d][1,4]diazepin-3-yl)benzyl)amino)piperidine-1-carboxylate], the IC50 was 2300 nM.

With `CCCN(C)Cc1ccc(-c2nnc3n2-c2cccnc2Nc2ccccc2-3)cc1` [Example 90, N-(4-(9H-benzo[f]pyrido[2,3-b][1,2,4]triazolo[4,3-d][1,4]diazepin-3-yl)benzyl)-N-methylpropan-1-amine], the concentration for half-maximal inhibition (IC50) was determined as 2500 nM.

With `Cc1ccc(CN2CCN(Cc3ccc(-c4nnc5n4-c4cccnc4Nc4ccccc4-5)cc3)CC2)cc1` [Example 91, 3-(4-((4-(4-methylbenzyl)piperazin-1-yl)methyl)phenyl)-9H-benzo[f]pyrido[2,3-b][1,2,4]triazolo[4,3-d][1,4]diazepine], the IC50 was 2800 nM.

Consider `O=C(c1ccco1)N1CCN(Cc2ccc(-c3nnc4n3-c3cccnc3Nc3ccccc3-4)cc2)CC1` [Example 92, (4-(4-(9H-benzo[f]pyrido[2,3-b][1,2,4]triazolo[4,3-d][1,4]diazepin-3-yl)benzyl)piperazin-1-yl)(furan-2-yl)methanone], for which the IC50 is 1400 nM.

As for `c1ccc2c(c1)Nc1ncccc1-n1c(-c3ccc(CNCC4CC4)cc3)nnc1-2` [Example 93, N-(4-(9H-benzo[f]pyrido[2,3-b][1,2,4]triazolo[4,3-d][1,4]diazepin-3-yl)benzyl)-1-cyclopropylmethanamine], the IC50 worked out at 6700 nM.

For the compound `c1ccc(CCN2CCN(Cc3ccc(-c4nnc5n4-c4cccnc4Nc4ccccc4-5)cc3)CC2)cc1` [Example 94, 3-(4-((4-phenethylpiperazin-1-yl)methyl)phenyl)-9H-benzo[f]pyrido[2,3-b][1,2,4]triazolo[4,3-d][1,4]diazepine], the IC50 was determined as 5800 nM.

For `O=C(NCc1ccc(-c2nnc3n2-c2cccnc2Nc2ccccc2-3)cc1)c1ccc(F)cc1` [Example 95, N-(4-(9H-benzo[f]pyrido[2,3-b][1,2,4]triazolo[4,3-d][1,4]diazepin-3-yl)benzyl)-4-fluorobenzamide], the IC50 was 300 nM.

On to `O=C(NCc1ccc(-c2nnc3n2-c2cccnc2Nc2ccccc2-3)cc1)c1cccnc1` [Example 96, N-(4-(9H-benzo[f]pyrido[2,3-b][1,2,4]triazolo[4,3-d][1,4]diazepin-3-yl)benzyl)nicotinamide], for which the IC50 was 200 nM.

In the case of `O=C(NCc1ccc(-c2nnc3n2-c2cccnc2Nc2ccccc2-3)cc1)c1ccco1` [Example 97, N-(4-(9H-benzo[f]pyrido[2,3-b][1,2,4]triazolo[4,3-d][1,4]diazepin-3-yl)benzyl)furan-2-carboxamide], the concentration for half-maximal inhibition (IC50) was 1100 nM.

Turning to `O=C(NCc1ccc(-c2nnc3n2-c2cccnc2Nc2ccccc2-3)cc1)c1ccccc1` [Example 99, N-(4-(9H-benzo[f]pyrido[2,3-b][1,2,4]triazolo[4,3-d][1,4]diazepin-3-yl)benzyl)benzamide], the half-maximal inhibitory concentration (IC50) was determined as 200 nM.

In the case of `O=C(NCc1ccc(-c2nnc3n2-c2cccnc2Nc2ccccc2-3)cc1)C1CCC1` [Example 100, N-(4-(9H-benzo[f]pyrido[2,3-b][1,2,4]triazolo[4,3-d][1,4]diazepin-3-yl)benzyl)cyclobutanecarboxamide], the IC50 turned out to be 1800 nM.

In the case of `O=S(=O)(NCc1ccc(-c2nnc3n2-c2cccnc2Nc2ccccc2-3)cc1)c1ccccc1` [Example 101, N-(4-(9H-benzo[f]pyrido[2,3-b][1,2,4]triazolo[4,3-d][1,4]diazepin-3-yl)benzyl)benzenesulfonamide], the IC50 came to 140 nM.

Consider `COc1ccc(S(=O)(=O)NCc2ccc(-c3nnc4n3-c3cccnc3Nc3ccccc3-4)cc2)cc1` [Example 102, N-(4-(9H-benzo[f]pyrido[2,3-b][1,2,4]triazolo[4,3-d][1,4]diazepin-3-yl)benzyl)-4-methoxybenzenesulfonamide], for which the IC50 turned out to be 800 nM.
